Patent US7736646B2, “Methods for modulating angiogenesis with apelin compositions” (Arizona Board of Regents on behalf of the University of …, priority 2003, dated 2010)

Legend:
BAE/APJ#2 cells [1] = assay: Endothelial cell proliferation assay (BrdU incorporation); type: cell-based, bovine
Protocol: SU1498 was included in proliferation cultures at a concentration of 10 ng/ml and results were assayed using BrdU incorporation. After growth factor incubation, BrdU was added to each well at a final concentration of 10 μM for 2 hours, cells were washed, and fixed for BrdU immunocytochemistry.
Cells were fixed in 100% ice cold methanol at 4° C. for 2 hours to overnight. Prior to staining, cells were air dried and rehydrated for 3 minutes with PBS buffer. DNA was denatured at 37° C. with 2 M HCl, and neutralized with 2 washes for 5 minutes in 0.1 M borate buffer (pH 8.5). […] FITC-labeled anti-BrdU antibody (5 μg/ml) in block was added for 1 hour at room temperature. Cells were counterstained with propidium iodide following several washes in PBS buffer. For each experiment, 4 random fields were photographed for determination of percentage BrdU labeling.

[2] = tested on: primary rat cardiomyocyte cells; assay: Cobalt chloride hypoxia-mimic treatment, transcript levels by PCR; type: cell-based; settings: 150 μM, 4 hours, versus untreated cells
Protocol: Because HIF-1α consensus sites are present in the apelin regulatory region, experiments were conducted to determine whether apelin expression is hypoxia responsive and regulated by HIF-1α. Upregulation of apelin expression under hypoxic conditions would be consistent with a role for apelin in promotion of tumor angiogenesis. Preliminary experiments were carried out using primary rat cardiomyocyte cells in culture and treatment with cobalt chloride. This procedure is accepted as an equivalent to culturing cells under hypoxic conditions because HIF-1α is a metal responsive transcription protein (Ladoux and Frelin, 1994; Piret et al., 2002; Maxwell and Salnikow, 2004). Fetal rat cardiac myocytes were plated and cultured in DMEM (Invitrogen, Carlsbad, Calif.) supplemented with 10% fetal calf serum and penicillin/streptomyocin at 37° C. After four days of culture, medium was removed, and cells were treated with fresh media containing 150 μM Cobalt Chloride (Piret et al., 2002). […] After 4 hours of culture, cells were harvested, and total RNA was extracted using the Trizol procedure according to the manufacturers recommendations (Invitrogen, Carlsbad, Calif.).
Following PCR, amplification products were fractionated on an agarose gel and visualized using ethidium bromide staining under ultraviolet light (FIG. 12).

BAE/APJ#2 cells [3] = settings: 10 ng/ml in bottom chamber, 16 hours
Protocol: Bovine aortic endothelial cells (BAE) were cultured in DMEM supplemented with 10% fetal bovine serum (FBS) and penicillin/streptomycin. For generation of stable cell lines expressing APJ, the mouse APJ coding region was cloned into the pcDNA 3.1 vector downstream of the CMV promoter, in frame with a myc epitope at the C-terminal end of the protein, and upstream of the neomycin gene. […] Colonies were isolated and screened using RT-PCR for expression of mouse APJ and also by immunocytochemistry for expression of the myc epitope.
Cell migration assays were performed using Transwell cell culture migration chambers (Becton Dickinson) with 8 micron pore size. BAE/APJ#2 cells were plated in serum free conditions in 100 μl at a concentration of 1×10^5 ml in the upper chamber of the migration chamber. Following cell attachment to the membrane, 10 ng/ml of growth factor was added to the bottom chamber, in a total volume of 0.5 ml. Cells were stimulated with growth factor in DMEM for 16 hours, or DMEM alone, at which time the cells remaining in the upper chamber were removed using a cotton tip applicator. Following a brief wash with PBS the remaining cells were fixed in 3.7% formaldehyde at 4° C. for 1 hour. Cells attached to the membrane in the lower chamber were stained with DAPI, and 3 random fields were counted for each experimental condition.

[4] = tested on: chicken chorioallantoic membrane (CAM); settings: 50 ng on filter disc, three days, compared to control PBS
Protocol: Chicken eggs were incubated at 37° C. in a humidified chamber. On day 10 of development, a small window was made in the outer shell of the egg, and the CAM was released from its attachment to the inner shell membrane. A larger window was then made in the egg to allow for addition of the filter paper containing growth factor. Filter discs (3MM Whatman) of 7-8 mm diameter were pretreated with 10 μl of 0.1% cortisone acetate (Sigma) solution to avoid inflammation of the CAM. The filter discs were air dried prior to application of growth factors. […] After air-drying, the filter discs were placed on the CAM, and eggs were returned to the incubator for three days. Filter discs and the attached CAM were then excised, washed with PBS, trimmed to the size of the disc, and photographed for quantitative analysis (FIGS. 7A and 7B). The number of vessel branch points was determined using a blind protocol. The results are shown as the mean of three independent experiments +/−s.e.m. (FIG. 7C).

CC(C)c1cc(/C=C(\C#N)C(=O)NCCCc2ccccc2)cc(C(C)C)c1O [SU1498, reference compound]
effect on VEGF-mediated proliferation (BAE/APJ#2 cells [1]; SU1498 10 ng/ml, VEGF 10 ng/ml): partially inhibits | effect on apelin-mediated proliferation (BAE/APJ#2 cells [1]; SU1498 10 ng/ml, apelin 10 ng/ml): no significant effect

[Cl][Co][Cl] [Cobalt Chloride]
apelin expression (transcript level, PCR) [2]: significantly increased

apelin-13
endothelial cell proliferation (percentage BrdU labeling) (BAE/APJ#2 cells [1]; 10 ng/ml, 24 hours, serum starved cells): promotes endothelial cell proliferation to a similar extent as VEGF | endothelial cell proliferation in the presence of the VEGF inhibitor SU1498 (BAE/APJ#2 cells [1]; apelin 10 ng/ml with SU1498 10 ng/ml): still able to promote proliferation | endothelial cell migration (cells per field) (BAE/APJ#2 cells [3]): promotes endothelial cell migration | blood vessel formation in the CAM [4]: increased | leakage of blood vessels in the CAM [4]: increased

VEGF [reference compound]
endothelial cell migration (cells per field) (BAE/APJ#2 cells [3]): increase in migration
